Laboratory results from PubChem BioAssay AID1919001 (Molecular Pharmacology Branch, DTP, NCI, 2023).
pIC50: −log10 of the molar value.

System: 699152-130-R-J1-PDC complex spheroid growth
Assay: Anticancer human tumor 699152-130-R-J1-PDC patient-derived pancreatic carcinoma cell line growth inhibition [AhR]
Settings: for pIC50: curve of first compound; for viability, T/C: stronger effect = lower value
How it was run: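 Spheroids combined tumor cells with HUVEC endothelial cells and human MSCs as stroma. AhR antagonists were paired with standard or investigational drugs, each dosed in half-log steps down from near clinical Cmax, or from 10 microM where Cmax was unknown.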

[1] = second compound 0.1 µM, first compound 0.00316 µM
[2] = second compound 0.1 µM, first compound 0.01 µM
[3] = second compound 0.1 µM, first compound 0.0316 µM
[4] = second compound 0.1 µM, first compound 0.1 µM
[5] = second compound 0.316 µM, first compound 0.00316 µM
[6] = second compound 0.316 µM, first compound 0.01 µM
[7] = second compound 0.316 µM, first compound 0.0316 µM
[8] = second compound 0.316 µM, first compound 0.1 µM
[9] = second compound 1 µM, first compound 0.00316 µM
[10] = second compound 1 µM, first compound 0.01 µM
[11] = second compound 1 µM, first compound 0.0316 µM
[12] = second compound 1 µM, first compound 0.1 µM
[13] = second compound 3.16 µM, first compound 0.00316 µM
[14] = second compound 3.16 µM, first compound 0.01 µM
[15] = second compound 3.16 µM, first compound 0.0316 µM
[16] = second compound 3.16 µM, first compound 0.1 µM
[17] = second compound 10 µM, first compound 0.00316 µM
[18] = second compound 10 µM, first compound 0.01 µM
[19] = second compound 10 µM, first compound 0.0316 µM
[20] = second compound 10 µM, first compound 0.1 µM
[21] = second compound 0.1 µM, first compound 0.316 µM
[22] = second compound 0.1 µM, first compound 1 µM
[23] = second compound 0.1 µM, first compound 3.16 µM
[24] = second compound 0.1 µM, first compound 10 µM
[25] = second compound 0.316 µM, first compound 0.316 µM
[26] = second compound 0.316 µM, first compound 1 µM
[27] = second compound 0.316 µM, first compound 3.16 µM
[28] = second compound 0.316 µM, first compound 10 µM
[29] = second compound 1 µM, first compound 0.316 µM
[30] = second compound 1 µM, first compound 1 µM
[31] = second compound 1 µM, first compound 3.16 µM
[32] = second compound 1 µM, first compound 10 µM
[33] = second compound 3.16 µM, first compound 0.316 µM
[34] = second compound 3.16 µM, first compound 1 µM
[35] = second compound 3.16 µM, first compound 3.16 µM
[36] = second compound 3.16 µM, first compound 10 µM
[37] = second compound 10 µM, first compound 0.316 µM
[38] = second compound 10 µM, first compound 1 µM
[39] = second compound 10 µM, first compound 3.16 µM
[40] = second compound 10 µM, first compound 10 µM
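Further: compound exposure lasted 7 days after spheroids had grown for 3 days.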

pIC50 (second compound 0.1 µM) | pIC50 (second compound 0.316 µM) | pIC50 (second compound 1 µM) | pIC50 (second compound 3.16 µM) | pIC50 (second compound 10 µM) | Compound | viability, T/C [3] [%] | viability, T/C [4] [%] | viability, T/C [7] [%] | viability, T/C [8] [%] | viability, T/C [11] [%] | viability, T/C [12] [%] | viability, T/C [15] [%] | viability, T/C [16] [%] | viability, T/C [19] [%] | viability, T/C [20] [%] | viability, T/C [21] [%] | viability, T/C [22] [%] | viability, T/C [25] [%] | viability, T/C [26] [%] | viability, T/C [29] [%] | also measured
< 7.00 | < 7.00 | < 7.00 | < 7.00 | > 9.50 | CC[C@@]1(O)C(=O)OCc2c1cc1n(c2=O)Cc2cc3c(CN(C)C)c(O)ccc3nc2-1 + Cc1cncc(-c2nc(NCCc3c[nH]c4ccccc34)c3ncn(C(C)C)c3n2)c1 | 80.7 | 69.6 | 80.3 | 66.5 | 83.9 | 62.9 | 64 | 54.7 | 11.1 | 14.1 | – | – | – | – | – | viability, T/C (second compound 0.1 µM, first compound 0.000316 µM): 102%; viability, T/C (second compound 0.1 µM, first compound 0.001 µM): 98.5%; viability, T/C [1]: 100%; viability, T/C [2]: 101%; viability, T/C (second compound 0.316 µM, first compound 0.000316 µM): 101%; viability, T/C (second compound 0.316 µM, first compound 0.001 µM): 98.4%; viability, T/C [5]: 98%; viability, T/C [6]: 93.9%; viability, T/C (second compound 1 µM, first compound 0.000316 µM): 105%; viability, T/C (second compound 1 µM, first compound 0.001 µM): 107%; viability, T/C [9]: 105%; viability, T/C [10]: 99.4%; viability, T/C (second compound 3.16 µM, first compound 0.000316 µM): 112%; viability, T/C (second compound 3.16 µM, first compound 0.001 µM): 92.8%; viability, T/C [13]: 95%; viability, T/C [14]: 93.7%; viability, T/C (second compound 10 µM, first compound 0.000316 µM): 12.6%; viability, T/C (second compound 10 µM, first compound 0.001 µM): 11.5%; viability, T/C [17]: 10.6%; viability, T/C [18]: 12.1%
< 5.00 | 5.12 | 5.04 | 5.57 | > 7.50 | COc1cc(C2c3cc4c(cc3C(OC3OC5COC(C)OC5C(O)C3O)C3COC(=O)C23)OCO4)cc(OC)c1O (stereo not given) + Cc1cncc(-c2nc(NCCc3c[nH]c4ccccc34)c3ncn(C(C)C)c3n2)c1 | 106 | 98 | 104 | 89.5 | 99.6 | 97.2 | 106 | 91.3 | 0.93 | 1.13 | 70.1 | 70.3 | 80.2 | 67.4 | 74.9 | viability, T/C [23]: 58%; viability, T/C [24]: 52.6%; viability, T/C [27]: 58.9%; viability, T/C [28]: 46.8%; viability, T/C [30]: 77.5%; viability, T/C [31]: 63.6%; viability, T/C [32]: 47.4%; viability, T/C [33]: 70.1%; viability, T/C [34]: 60.6%; viability, T/C [35]: 48.5%; viability, T/C [36]: 41.7%; viability, T/C [37]: 1.96%; viability, T/C [38]: 1.2%; viability, T/C [39]: 1.07%; viability, T/C [40]: 4.92%
6.46 | 6.47 | 6.45 | 6.93 | > 7.50 | COc1cccc2c1C(=O)c1c(O)c3c(c(O)c1C2=O)CC(O)(C(=O)CO)CC3OC1CC(N)C(O)C(C)O1 (stereo not given) + Cc1cncc(-c2nc(NCCc3c[nH]c4ccccc34)c3ncn(C(C)C)c3n2)c1 | 67.3 | 64.1 | 62.9 | 58.7 | 70.8 | 71.5 | 51.5 | 53.3 | 14.6 | 16.3 | 51.4 | 25.4 | 51.6 | 22.9 | 52.5 | viability, T/C [23]: 2.77%; viability, T/C [24]: 7.37%; viability, T/C [27]: 2.99%; viability, T/C [28]: 7.49%; viability, T/C [30]: 20.9%; viability, T/C [31]: 3.69%; viability, T/C [32]: 6.86%; viability, T/C [33]: 34.7%; viability, T/C [34]: 5.89%; viability, T/C [35]: 4.86%; viability, T/C [36]: 7.43%; viability, T/C [37]: 14.2%; viability, T/C [38]: 1.29%; viability, T/C [39]: 5.06%; viability, T/C [40]: 5.36%
5.91 | 5.89 | 5.60 | 6.06 | > 7.50 | Nc1ccn(C2OC(CO)C(O)C2(F)F)c(=O)n1 (stereo not given) + Cc1cncc(-c2nc(NCCc3c[nH]c4ccccc34)c3ncn(C(C)C)c3n2)c1 | 76.3 | 69.2 | 81.3 | 63.6 | 72.6 | 67.9 | 74.7 | 71.1 | 47.8 | 50.9 | 62.3 | 49.4 | 56.8 | 56.1 | 58.6 | viability, T/C [23]: 46.6%; viability, T/C [24]: 42.8%; viability, T/C [27]: 45.3%; viability, T/C [28]: 40.6%; viability, T/C [30]: 53.8%; viability, T/C [31]: 50.5%; viability, T/C [32]: 43.8%; viability, T/C [33]: 55.6%; viability, T/C [34]: 50.8%; viability, T/C [35]: 45.4%; viability, T/C [36]: 49.8%; viability, T/C [37]: 40.5%; viability, T/C [38]: 46%; viability, T/C [39]: 39.4%; viability, T/C [40]: 35.5%
< 6.00 | < 6.00 | < 6.00 | < 6.00 | > 8.50 | Nc1ncn(C2CC(O)C(CO)O2)c(=O)n1 (stereo not given) + Cc1cncc(-c2nc(NCCc3c[nH]c4ccccc34)c3ncn(C(C)C)c3n2)c1 | 90.4 | 98.4 | 104 | 86.5 | 99.6 | 97.9 | 111 | 100 | 0.78 | 0.82 | 85.4 | 87.8 | 96.3 | 97.2 | 110 | viability, T/C [1]: 109%; viability, T/C [2]: 88%; viability, T/C [5]: 99.3%; viability, T/C [6]: 90.8%; viability, T/C [9]: 106%; viability, T/C [10]: 115%; viability, T/C [30]: 92.2%; viability, T/C [13]: 95%; viability, T/C [14]: 87.1%; viability, T/C [33]: 97.6%; viability, T/C [34]: 93.9%; viability, T/C [17]: 0.96%; viability, T/C [18]: 2.37%; viability, T/C [37]: 1.11%; viability, T/C [38]: 5.98%
